Patent US20090181948A1, “DIAMINE DERIVATIVE” (KYOWA HAKKO KOGYO CO., LTD., priority 2005, published 2009)
Counter-ions that a name gives are not always drawn.

Legend:
histamine H3 receptor [1] = target: T1, histamine H3 receptor (Rattus norvegicus, UniProt Q9QYN8); experiment: Histamine H3 receptor binding assay ([3H]-Nα-methylhistamine binding to rat striatum homogenate); conditions: 1 μmol/L test compound; [3H]-Nα-methylhistamine 1 nmol/L; striata of Sprague-Dawley male rats, 25° C., 1 hour; read-out: Inhibition ratio of [3H]-Nα-methylhistamine binding
T1 construct: from tissue; host or cells: rat striatum (Sprague-Dawley, male, 6 weeks), membrane homogenate
How it was run: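 Rat striatum membranes (20 μg protein) incubated with [3H]-Nα-methylhistamine 1 nmol/L in 50 mmol/L Tris/HCl pH 7.4, 5 mmol/L EDTA, 1 hour at 25° C; bound ligand by filtration and scintillation counting. Nonspecific binding defined with 10 μmol/L thioperamide; % inhibition reported at 1 μmol/L compound.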

histamine H3 receptor [2] = target: T1, histamine H3 receptor; experiment: Inhibitory effect on histamine release suppressive action of histamine H3 receptor agonist (Nα-methylhistamine) in rat forebrain synaptosomes; type: biochemical; conditions: 1 μmol/L test compound and 1 μmol/L Nα-methylhistamine, potassium 30 mmol/L stimulation, read-out: Inhibition ratio of the [3H]-histamine release suppressive action of Nα-methylhistamine
Procedure: To the forebrains of Sprague-Dawley male rats (6 to 8 weeks of age), a 30-fold volume of a 0.32 mol/L aqueous sucrose solution was added and the forebrains were homogenized. The resulting homogenate was centrifuged (1,000×g, 4° C., 10 min), and to the obtained supernatant, an equivalent volume of Krebs-Ringer solution [120 mmol/L sodium chloride, 0.8 mmol/L potassium chloride, 2.6 mmol/L calcium chloride, 0.67 mmol/L magnesium sulfate, 1.2 mmol/L potassium dihydrogen phosphate, 27.5 mmol/L sodium bicarbonate, 10 mmol/L glucose (pH 7.3)] was added, and the resulting mixture was centrifuged (10,000×g, 4° C., 15 min). To the obtained precipitate, a 15-fold volume of Krebs-Ringer solution was added to suspend the precipitate. Then, the concentration of protein in the resulting tissue homogenate (synaptosomes) was measured and used for a test.
To the synaptosomes (300 μg in terms of protein amount) prepared by the above-described method, a [^3H]-histidine solution [final concentration: […] (740 kBq)/mL]: 6 μl of a 37 MBq/mL (specific activity: […]) solution] was added, and the total volume was adjusted to 300 μL with Krebs-Ringer solution. Then, the resulting mixture was incubated at 37° C. for 30 minutes and centrifuged (10,000×g, 25° C., 3 min). To the resulting precipitate (synaptosomes), 300 μL of Krebs-Ringer solution was added, and the mixture was incubated at 37° C. for 5 minutes and centrifuged (10,000×g, 25° C., 3 min). This procedure was repeated 5 times, whereby washing of synaptosomes was carried out. The resulting synaptosomes were suspended in 100 μL of Krebs-Ringer solution, and the resulting suspension was used for the following procedure.
A test compound and N^α-methylhistamine were separately dissolved in Krebs-Ringer solution to give a concentration of 20 μmol/L (the resulting mixtures were referred to as a test compound solution and a N^α-methylhistamine solution, respectively). To 100 μL of the above-described suspended synaptosomes (300 μg in terms of protein amount), 140 μL of Krebs-Ringer solution was added. Then, 30 μL of the test compound solution and 30 μL of the N^α-methylhistamine solution were added thereto, and the resulting mixture was incubated at 37° C. for 2 minutes. Then, an equivalent volume of a stimulating solution [64 mmol/L sodium chloride, 56.8 mmol/L potassium chloride, 2.6 mmol/L calcium chloride, 0.67 mmol/L magnesium sulfate, 1.2 mmol/L potassium dihydrogen phosphate, 27.5 mmol/L sodium bicarbonate, 10 mmol/L glucose (pH 7.3)] (final potassium concentration: 30 mmol/L) was added, and the resulting mixture was incubated at 37° C. for 2 minutes to release [^3H]-histamine. The reaction mixture was centrifuged (10,000×g, 25° C., 3 min), and the obtained supernatant was passed through Amberlite CG-50 column (250 μL), and the non-adsorbed fractions were discarded. Then, 2 mL of 50 mmol/L [[…]]/hydrochloric acid (HCl) (pH 7.5) (Tris) was passed through the column 3 times, and 2 mL of distilled water, and 1.5 mL of a 0.2 mol/L aqueous sodium hydroxide solution were passed through the column in this order, and the eluted fractions were discarded. Then, 2 mL of a 0.2 mol/L aqueous sodium hydroxide solution was passed through the column, and the eluted fraction was recovered in a scintillation vial. Then, 8 mL of Ultimagold (Perkin Elmer) was added to the recovered eluted solution, and the radioactivity ([^3H]-histamine) was measured using a liquid scintillation counter. The inhibitory action of the test compound on the histamine release suppressive action of N^α-methylhistamine was evaluated by obtaining the inhibition ratio to the histamine release suppressive action in the presence of 1 μmol/L No-methylhistamine and 1 μmol/L of the test compound. The inhibition ratio of the [^3H]-histamine release suppressive action was calculated using the following Equation (2). […]

T1 sequence (Q9QYN8 whole entry): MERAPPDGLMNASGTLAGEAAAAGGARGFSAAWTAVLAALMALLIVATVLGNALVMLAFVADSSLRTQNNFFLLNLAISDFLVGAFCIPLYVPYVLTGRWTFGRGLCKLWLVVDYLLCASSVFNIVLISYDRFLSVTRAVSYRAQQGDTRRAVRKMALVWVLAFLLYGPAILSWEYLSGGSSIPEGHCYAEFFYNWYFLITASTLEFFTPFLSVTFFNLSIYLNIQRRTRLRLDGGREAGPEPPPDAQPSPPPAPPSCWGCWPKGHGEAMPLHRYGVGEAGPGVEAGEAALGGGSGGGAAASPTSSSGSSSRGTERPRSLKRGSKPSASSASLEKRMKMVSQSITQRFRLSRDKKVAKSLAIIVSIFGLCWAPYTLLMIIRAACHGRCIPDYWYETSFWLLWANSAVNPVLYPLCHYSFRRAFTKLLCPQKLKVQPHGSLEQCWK

In the case of `CC1CCCN1CCN1CCN(CCN2CCCC2C)C1=C(C#N)C#N` (stereo not drawn) [Compound 6, {1,3-Bis[2-(2-methylpyrrolidin-1-yl)ethyl]imidazolidin-2-ylidene}malononitrile], the inhibition at 1 µM (histamine H3 receptor [1]) is reported as no less than 80% and the inhibition at 1 µM (histamine H3 receptor [2]) is reported as no less than 70%.
Work on `N#CC(C#N)=C1N(CCCCN2CCCCC2)CCN1CCN1CCCCC1` [Compound 7, [1-(4-Piperidinobutyl)-3-(2-piperidinoethyl)imidazolidin-2-ylidene]malononitrile] yielded an inhibition at 1 µM (histamine H3 receptor [1]) of no less than 80% and an inhibition at 1 µM (histamine H3 receptor [2]) of no less than 70%.
Compound `N#CC(C#N)=C1N(CCCN2CCCCC2)CCN1CCN1CCCCC1` [Compound 10, [1-(2-Piperidinoethyl)-3-(3-piperidinopropyl)imidazolidin-2-ylidene]malononitrile] has an inhibition at 1 µM (histamine H3 receptor [1]) of no less than 80% and an inhibition at 1 µM (histamine H3 receptor [2]) of no less than 70%.
Work on `CC1CCCN1CCCN1CCN(CCN2CCCC2C)C1=C(C#N)C#N` (stereo not drawn) [Compound 11, {1-[2-(2-Methylpyrrolidin-1-yl)ethyl]-3-[3-(2-methylpyrrolidin-1-yl)propyl]imidazolidin-2-ylidene}malononitrile] yielded an inhibition at 1 µM (histamine H3 receptor [1]) of no less than 80%, an inhibition at 1 µM (histamine H3 receptor [2]) of no less than 70% and a melting point of 69 to 71 °C.
With `N#CC(C#N)=C1N(CCCN2CCCCC2)CCN1CCN1CCCCCC1` [Compound 47, {1-[2-(Azepan-1-yl)ethyl]-3-(3-piperidinopropyl)imidazolidin-2-ylidene}malononitrile] the inhibition at 1 µM (histamine H3 receptor [1]) was no less than 80% and the inhibition at 1 µM (histamine H3 receptor [2]) was no less than 70%.
Work on `C[C@@H]1CCC[C@H](C)N1CCN1CCN(CCCN2CCCCC2)C1=C(C#N)C#N` [Compound 51, {1-[2-(Cis-2,6-dimethylpiperidino)ethyl]-3-(3-piperidinopropyl)imidazolidin-2-ylidene}malononitrile] yielded an inhibition at 1 µM (histamine H3 receptor [1]) of no less than 80% and an inhibition at 1 µM (histamine H3 receptor [2]) of no less than 70%.
Compound `C[C@H]1CCCN1CCCN1CCN(CCN2CCC[C@@H]2C)C1=C(C#N)C#N` [Compound 56, {1-[2-((S)-2-methylpyrrolidin-1-yl)ethyl]-3-[3-((S) 2-methylpyrrolidin-1-yl)propyl]imidazolidin-2-ylidene}malononitrile] has an inhibition at 1 µM (histamine H3 receptor [1]) of no less than 80%, an inhibition at 1 µM (histamine H3 receptor [2]) of no less than 70% and a melting point of 70 to 72 °C.
`CC1CCCN1CCN1CCN(CCCN2CCCCC2)C1=C(C#N)C#N` (stereo not drawn) [Compound 57, {1-[2-(2-Methylpyrrolidin-1-yl)ethyl]-3-(3-piperidinopropyl)imidazolidin-2-ylidene}malononitrile] gave an inhibition at 1 µM (histamine H3 receptor [1]) of no less than 80%, an inhibition at 1 µM (histamine H3 receptor [2]) of no less than 70% and a melting point of 84 to 86 °C.
Work on `N#CC(C#N)=C1N(CCCN2CCCCC2)CCN1CCCN1CCCCC1` [Compound 64, [1,3-Bis(3-piperidinopropyl)imidazolidin-2-ylidene]malononitrile] yielded an inhibition at 1 µM (histamine H3 receptor [1]) of no less than 80% and an inhibition at 1 µM (histamine H3 receptor [2]) of no less than 70%.
In the case of `CC1CCCN1CCCN1CCN(CCCN2CCCCCC2)C1=C(C#N)C#N` (stereo not drawn) [Compound 71, {1-[3-(Azepan-1-yl)propyl]-3-[3-(2-methylpyrrolidin-1-yl)propyl]imidazolidin-2-ylidene}malononitrile], the inhibition at 1 µM (histamine H3 receptor [1]) is reported as no less than 80% and the inhibition at 1 µM (histamine H3 receptor [2]) is reported as no less than 70%.
`CC1CCCN1CCCN1CCN(CCCN2CCCCC2)C1=C(C#N)C#N` (stereo not drawn) [Compound 103, {1-[3-(2-Methylpyrrolidin-1-yl)propyl]-3-(3-piperidinopropyl)imidazolidin-2-ylidene}malononitrile] showed an inhibition at 1 µM (histamine H3 receptor [1]) of no less than 80% and an inhibition at 1 µM (histamine H3 receptor [2]) of no less than 70%.
Work on `CC1CCCCN1CCCN1CCN(CCCN2CCCC2C)C1=C(C#N)C#N` (stereo not drawn) [Compound 111, {1-[3-(2-Methylpiperidino)propyl]-3-[3-(2-methylpyrrolidin-1-yl)propyl]imidazolidin-2-ylidene}malononitrile] yielded an inhibition at 1 µM (histamine H3 receptor [1]) of no less than 80% and an inhibition at 1 µM (histamine H3 receptor [2]) of no less than 70%.
Compound `N#CC(C#N)=C1N(CCCN2CCCCC2)CCCN1CCCN1CCCCC1` [Compound 122, [1,3-Bis(3-piperidinopropyl)hexahydropyrimidin-2-ylidene]malononitrile] has an inhibition at 1 µM (histamine H3 receptor [1]) of no less than 80% and an inhibition at 1 µM (histamine H3 receptor [2]) of no less than 70%.
`CC1CCCN1CCCN1C(=C(C#N)C#N)N(CCCN2CCCC2C)c2ccccc21` (stereo not drawn) [Compound 124, {1,3-Bis[3-(2-methylpyrrolidin-1-yl)propyl]benzimidazolidin-2-ylidene}malononitrile] showed an inhibition at 1 µM (histamine H3 receptor [1]) of no less than 80% and an inhibition at 1 µM (histamine H3 receptor [2]) of no less than 70%.
Compound `N#CC(C#N)=C1N(CCCN2CCCCC2)CCN1C1CCN(Cc2ccccc2)CC1` [Compound 126, [1-(1-Benzylpiperidin-4-yl)-3-(3-piperidinopropyl)imidazolidin-2-ylidene]malononitrile] has an inhibition at 1 µM (histamine H3 receptor [1]) of no less than 80% and an inhibition at 1 µM (histamine H3 receptor [2]) of no less than 70%.
`CN1CCC(N2CCN(CCCN3CCCCC3)C2=C(C#N)C#N)CC1` [Compound 129, [1-(1-Methylpiperidin-4-yl)-3-(3-piperidinopropyl)imidazolidin-2-ylidene]malononitrile] showed an inhibition at 1 µM (histamine H3 receptor [1]) of no less than 80% and an inhibition at 1 µM (histamine H3 receptor [2]) of no less than 70%.
In the case of `CC(C)N1CCC(N2CCN(CCCN3CCCCC3)C2=C(C#N)C#N)CC1` [Compound 130, [1-(1-Isopropylpiperidin-4-yl)-3-(3-piperidinopropyl)imidazolidin-2-ylidene]malononitrile], the inhibition at 1 µM (histamine H3 receptor [1]) is reported as no less than 80% and the inhibition at 1 µM (histamine H3 receptor [2]) is reported as no less than 70%.
Compound `CC1CCCN1CC1CCN(C(=C(C#N)C#N)N(C)CCN2CCCCC2)CC1` (stereo not drawn) [Compound 149, {[N-methyl-N-(2-piperidinoethyl)amino][4-(2-methylpyrrolidin-1-ylmethyl)piperidino]methylene}malononitrile] has an inhibition at 1 µM (histamine H3 receptor [1]) of no less than 80% and an inhibition at 1 µM (histamine H3 receptor [2]) of no less than 70%.
Work on `CC(C)N1CCC(NC(=C(C#N)C#N)N2CCC(N3CCCCC3)CC2)CC1` [Compound 175, [(1-Isopropylpiperidin-4-ylamino)(4-piperidinopiperidino)methylene]malononitrile] yielded an inhibition at 1 µM (histamine H3 receptor [1]) of no less than 80% and an inhibition at 1 µM (histamine H3 receptor [2]) of no less than 70%.
`C[C@H]1CCCN1CCN1CCN(CCN2CCC[C@@H]2C)C1=C(C#N)C#N` [Compound 188, {1,3-Bis[2-((S)-2-methylpyrrolidin-1-yl)ethyl]imidazolidin-2-ylidene}malononitrile] showed an inhibition at 1 µM (histamine H3 receptor [1]) of no less than 80% and an inhibition at 1 µM (histamine H3 receptor [2]) of no less than 70%.
`CC(C)N1CCC(N2CCN(CCN3CCC[C@H]3C)C2=C(C#N)C#N)CC1` [Compound 213, {1-(1-Isopropylpiperidin-4-yl)-3-[2-((R)-2-methylpyrrolidin-1-yl)ethyl]imidazolidin-2-ylidene}malononitrile] showed an inhibition at 1 µM (histamine H3 receptor [1]) of no less than 80% and an inhibition at 1 µM (histamine H3 receptor [2]) of no less than 70%.
With `N#CC(C#N)=C1N(CCCN2CCCCC2)CCN1C1CCN(CCF)CC1` [Compound 215, {1-[1-(2-Fluoroethyl)piperidin-4-yl]-3-(3-piperidinopropyl)imidazolidin-2-ylidene}malononitrile] the inhibition at 1 µM (histamine H3 receptor [1]) was no less than 80% and the inhibition at 1 µM (histamine H3 receptor [2]) was no less than 70%.
`CC(C)N1CCC(N2CCN(CCCN3CCOCC3)C2=C(C#N)C#N)CC1` [Compound 216, [1-(1-Isopropylpiperidin-4-yl)-3-(3-morpholinopropyl)imidazolidin-2-ylidene]malononitrile] showed an inhibition at 1 µM (histamine H3 receptor [1]) of no less than 80% and an inhibition at 1 µM (histamine H3 receptor [2]) of no less than 70%.
Compound `C[C@H]1CCCN1CCCN1CCN(CCCN2CCC[C@@H]2C)C1=C(C#N)S(=O)(=O)c1ccccc1` [Compound 247, {1,3-Bis[3-((S)-2-methylpyrrolidin-1-yl)propyl]imidazolidin-2-ylidene}benzenesulfonylacetonitrile monohydrochloride] has an inhibition at 1 µM (histamine H3 receptor [1]) of no less than 80% and an inhibition at 1 µM (histamine H3 receptor [2]) of no less than 70%.
